For assay [1], the target named is T1, rabOBP3.
T1 construct: native mature protein (161 amino acids) purified from rabbit seminal fluid, delipidated with dichloromethane
The experiment in a line: competitive displacement of fluorescent probe 1-NPN. In kind it is binding, Oryctolagus cuniculus.

In assay [2] the target is T1, rabOBP3. The experiment in a line: fluorescent probe titration (direct fluorescence binding). The arrangement: species or system Oryctolagus cuniculus.

We go through 4 compounds from paper PMC4229146, “An Odorant-Binding Protein Is Abundantly Expressed in the Nose and in the Seminal Fluid of the Rabbit” (PLoS ONE, 2014).

As usually defined, the Kd is a measure of binding affinity in units of concentration.

Each structure is given as a SMILES string.

In turn, `CC(C)=CCC/C(C)=C/CO` [geraniol] had a Kd on rabOBP3 [1] of 11.2 µM.

On to `CCCCCC/C=C/C=O` [2-nonenal], for which, at rabOBP3 [1], the Kd stood at 7.8 µM.

The compound `O=c1c(O)c(-c2ccc(O)c(O)c2)oc2cc(O)cc(O)c12` [quercetin] yielded a Kd at rabOBP3 [1] of 2.2 µM.

For `c1ccc(Nc2cccc3ccccc23)cc1` [N-phenyl-1-naphthylamine], binding on rabOBP3 [2] was put at a Kd of 3.8 µM.
